The text below walks through data of PubChem BioAssay (NCI).

What all share (assay): NCI tumour cell line growth inhibition, 48 h
For experiment [1], the system named is 786-0 renal.
Experiment [2] deals with HT29 colon.
The subject of experiment [3] is LOX IMVI melanoma.
Experiment [4] has as its system M14 melanoma.
The test system of experiment [5] is NCI/ADR-RES ovarian.
In experiment [6] the test system is OVCAR-4 ovarian.
The test system of experiment [7] is RXF 393 renal.
In experiment [8] the test system is SF-539 CNS.
Experiment [9] relates to SK-MEL-2 melanoma.
Experiment [10] has as its system T-47D breast.

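1) Cells in 96-well plates. 2) Compound, 48 h, 5 concentrations. 3) Linear interpolation between surrounding doses. 4) Unreached endpoint = highest concentration. Here, GI50 denotes the concentration required for 50% inhibition of growth. At the TGI there is no net growth.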 A value given as a limit tells only on which side of the number the result lay.

On to `C/C(O)=C(\C=NC(=S)c1ccncc1)C(=O)Nc1ccccc1C`, for which the TGI in [1], in experiment [2], in experiment [3], in [4], in [5] and in experiment [6] was greater than 100 µM throughout. Moreover, the TGI in experiment [7], in experiment [8], in experiment [9] and in [10] was greater than 100 µM in each case.

As to `NS(=O)(=O)c1nnc(NS(=O)(=O)c2ccc([N+](=O)[O-])cc2)s1`, the TGI in experiment [1], in experiment [2], in experiment [3], in experiment [4], in experiment [5] and in experiment [6] was greater than 100 µM each time. Moreover, the TGI in experiment [7], in experiment [8], in experiment [9] and in experiment [10] was greater than 100 µM throughout.

With `COc1ccc2c(c1OC)C(=O)O[C@@H]2[C@H]1c2c(cc3c(c2OC)OCO3)CCN1C`, the TGI in [1], in experiment [2], in experiment [3], in [4], in experiment [5] and in experiment [6] was greater than 100 µM throughout. Moreover, the TGI in experiment [7], in experiment [8], in [9] and in experiment [10] was greater than 100 µM throughout.

Regarding `O=P1(Cc2ccccc2)c2ccccc2-c2ccccc21`, the TGI in [1] was greater than 100 µM; in [2] it was 27.1 µM; in [3], 23.1 µM; in experiment [4] it was 20.2 µM; in experiment [5], greater than 100 µM; in experiment [6] it was 87.9 µM. Moreover, the TGI was 28.9 µM in [7], 39.5 µM in experiment [8], 7.49 µM in [9] and 6 µM in experiment [10].

In the case of `O=C1NC(=Nc2ccccc2Cl)N/C1=C\c1ccc(Cl)cc1Cl`, the TGI in [1], in experiment [2], in [3], in experiment [4], in experiment [5] and in experiment [6] was greater than 100 µM each time. Moreover, the TGI in [7] was 40.1 µM; in experiment [8], greater than 100 µM; in experiment [9] it was 58.4 µM; in experiment [10] it was greater than 100 µM.

For `COc1ccc2oc(C(=O)N3CC(CCl)c4ccc(N)cc43)cc2c1` (stereo not given), the TGI turned out to be 0.277 µM in experiment [1]; 1.44 µM in experiment [2]; 32 µM in [3]; 0.758 µM in experiment [5]; 0.532 µM in experiment [7]; 5.66 µM in experiment [8]. The TGI in experiment [9] turned out to be 0.72 µM; in experiment [10], 3.87 µM.

As to `COCOc1cc(OC)ccc1C/C(=N/O)C(=O)OC`, the TGI in experiment [1], in [2], in experiment [3], in experiment [4], in experiment [5] and in experiment [6] was greater than 100 µM throughout. Further, the TGI in experiment [7], in experiment [8], in experiment [9] and in experiment [10] was greater than 100 µM throughout.

In the case of `CCOC(=O)/C=C(/C(=O)OCC)n1ccc(=O)n(Cc2cnnn2CCCCOC(C)=O)c1=O`, the TGI in experiment [1], in experiment [2], in experiment [3], in [5], in [6] and in experiment [7] was greater than 100 µM in each case. Moreover, the TGI in experiment [8], in experiment [9] and in experiment [10] was greater than 100 µM throughout.

`CCOC1CCN(C(=O)c2ccccc2)O1` (stereo not given): the TGI in [1], in experiment [2], in [3], in experiment [4], in experiment [5] and in experiment [6] was greater than 10 µM throughout. The TGI in experiment [7], in experiment [8], in experiment [9] and in experiment [10] was greater than 10 µM in each case.

For the compound `N#Cc1c(-c2ccc([N+](=O)[O-])cc2)cc(-c2ccc(Nc3ccnc4cc(Cl)ccc34)cc2)nc1N`, the TGI in [1] was 3.02 µM; in experiment [2], 8.86 µM; in experiment [3] it was 2.9 µM; in [4], 41.9 µM; in experiment [5] it was 26.8 µM; in experiment [6], 15.2 µM. In addition, the TGI in experiment [7] turned out to be 34.9 µM; in experiment [8], 55.4 µM; in experiment [9], 43.5 µM; in experiment [10], 11.1 µM.

On to `C[C@H]1O[C@@H](C(C)(C)C)OC(=O)[C@@H]1C(OC(=O)c1ccccc1)c1cccc2ccccc12` (stereo not given in full), for which the TGI in experiment [1], in [2], in [3], in [4], in experiment [5] and in experiment [6] was greater than 100 µM in each case. Besides, the TGI in [7], in experiment [8], in experiment [9] and in experiment [10] was greater than 100 µM throughout.

With `COc1cccc2cc(C(=O)NC34CC5CC(CC(C5)C3)C4)c(=N)oc12`, the TGI in experiment [1], in experiment [2], in experiment [3], in experiment [4], in experiment [5] and in experiment [6] was greater than 100 µM in each case. Also, the TGI is greater than 79.9 µM in [7], greater than 56.1 µM in experiment [8], greater than 100 µM in experiment [9] and greater than 74.4 µM in [10].

On to `C=CC[C@]1(C2=NC(C)(C)CO2)c2ccccc2-c2ccccc2[C@H]1C(C)=O`, for which the TGI in [1] is 24.9 µM; in [2], 17.3 µM; in experiment [3] it was 25.8 µM; in experiment [4], 21.7 µM; in experiment [5], 22.7 µM; in experiment [6], greater than 69 µM. Besides, the TGI in experiment [7] is 15.8 µM; in experiment [8], 25.1 µM; in experiment [9] it was 15.4 µM; in [10], greater than 69.5 µM.

In the case of `[N-]=[N+]=Nc1ccc2c(c1)Sc1ccccc1N2CCCCN1CCN(C(=O)CCNC(=O)Cc2ccc(C(=O)c3ccccc3)cc2)CC1`, the TGI in experiment [1] is 22.9 µM; in experiment [2], 4.67 µM; in experiment [3], 5.17 µM; in [4], 11.8 µM; in experiment [5] it was greater than 39.1 µM; in [6], greater than 25.6 µM. In addition, the TGI in [7] was greater than 100 µM; in [8], 17.2 µM; in experiment [9] it was 8.97 µM; in experiment [10], 28.7 µM.

In the case of `C[n+]1ccccc1/C1=c2\cc/c([nH]2)=C(\c2cccc[n+]2C)C2=N/C(=C(/c3cccc[n+]3C)C3C=CC(N3)/C(c3cccc[n+]3C)=C3/C=CC1=N3)C=C2`, the TGI in experiment [1], in experiment [2], in experiment [3], in experiment [4], in experiment [5] and in [6] was greater than 100 µM throughout. The TGI in experiment [7], in experiment [8], in experiment [9] and in experiment [10] was greater than 100 µM throughout.

Consider `CN(C)c1ccc(/C=C(\NC(=O)c2ccccc2)C(=O)NC(Cc2c[nH]c3ccccc23)C(=O)O)cc1` (stereo not given), for which the TGI in experiment [1], in experiment [2], in experiment [3], in [4], in experiment [5] and in experiment [6] was greater than 100 µM throughout. Moreover, the TGI in experiment [7], in [8], in [9] and in experiment [10] was greater than 100 µM in each case.

For the compound `CCOC(=O)C1(C(=O)OCC)C=C(c2ccccc2)N(C2OC(COC(C)=O)C(OC(C)=O)C(OC(C)=O)C2OC(C)=O)C1=S` (stereo not given), the TGI in experiment [1], in experiment [2], in experiment [3], in [4], in experiment [5] and in experiment [6] was greater than 100 µM in each case. The TGI in experiment [7], in experiment [8], in [9] and in experiment [10] was greater than 100 µM throughout.

For the compound `Cc1ccc(S(=O)(=O)NC(=O)NC(CCC(N)=O)C(=O)O)cc1` (stereo not given), the TGI in [1], in experiment [2], in [3], in [4], in experiment [5] and in [6] was greater than 100 µM in each case. Moreover, the TGI in experiment [7], in [8], in experiment [9] and in experiment [10] was greater than 100 µM throughout.

`O=C1NC(=Nc2ccccc2)C(=Nc2ccccc2)N1c1ccccc1`: the TGI in experiment [1] is 29 µM; in [2] it was 29.6 µM; in [3], 30.1 µM; in experiment [5], 30.6 µM; in experiment [6], 33.1 µM; in experiment [7], 29.2 µM. Also, the TGI in experiment [8] was found to be 31.5 µM; in experiment [9] it was 29.3 µM; in [10], 33.2 µM.

On to `CCC(=O)Nc1ccc(NCC(=O)Nc2ccc(OC)cc2)cc1`, for which the TGI in experiment [1] is 46.4 µM; in experiment [2] it was greater than 100 µM; in experiment [3], 39.3 µM; in experiment [4], greater than 100 µM; in experiment [5] it was 85.7 µM; in experiment [6] it was 35.2 µM. Further, the TGI in experiment [7] amounted to 35.2 µM; in experiment [8] it was 38.6 µM; in experiment [9], 38.5 µM; in experiment [10], 70.1 µM.

In the case of `O=[N+]([O-])C(C(Cl)=C(Cl)Cl)=C(n1cncn1)n1cncn1`, the TGI in experiment [1] was 45.4 µM; in [2], 39.4 µM; in experiment [3] it was 44.9 µM; in experiment [4], greater than 74.8 µM; in [5] it was 67 µM; in experiment [6], 57 µM. Moreover, the TGI was 43.4 µM in experiment [7], 41.2 µM in experiment [8], greater than 100 µM in experiment [9] and 51 µM in experiment [10].

Consider `CC(C)=C[C@@H]1O[C@H](O)[C@@H]([C@H]2CC[C@@]3(C)[C@@H]4CC[C@H]5C(C)(C)C(=O)CC[C@@]56C[C@@]46CC[C@]23C)[C@@H]1O`, for which the TGI was determined as 27.6 µM in experiment [1]; 24.1 µM in experiment [2]; 57.3 µM in [4]; 35.6 µM in [5]; 35 µM in [6]; 27.8 µM in experiment [7]. Moreover, the values for the TGI in experiment [8], in experiment [9] and in experiment [10] were 28 µM, 42.2 µM and 35.5 µM, respectively.

For the compound `O=C(NC1(C(=O)O)CCCC1)c1ccccc1`, the TGI in experiment [1], in experiment [2], in [3], in [4], in experiment [5] and in experiment [7] was greater than 100 µM throughout. Besides, the TGI in experiment [8], in experiment [9] and in experiment [10] was greater than 100 µM throughout.

`COc1ccccc1C1C(C#N)=C(N)Oc2cc(O)ccc21` (stereo not given): the GI50 is 16 µM in experiment [2]; 30.8 µM in experiment [3]; 13.4 µM in experiment [4]; 8.56 µM in experiment [5]; 25.3 µM in experiment [6]; 23.2 µM in experiment [7]. The GI50 in [8] is 24.7 µM; in experiment [9] it was 23 µM; in experiment [10] it was 13.9 µM. Moreover, the TGI is 45.1 µM in experiment [2]; greater than 100 µM in experiment [3]; 35 µM in [4]; 68.2 µM in experiment [5]; 85.9 µM in experiment [6]; 75.6 µM in experiment [7]. In addition, the values for the TGI in experiment [8], in experiment [9] and in [10] were 66 µM, greater than 100 µM and 76.3 µM, respectively.

Turning to `C=CCn1c(-c2ccc(Cl)cc2)csc1=Nc1ccccc1OC`, the TGI in experiment [1] is greater than 100 µM; in experiment [3] it was greater than 100 µM; in experiment [4] it was greater than 87.9 µM; in experiment [5], greater than 91.6 µM; in [6] it was greater than 100 µM; in experiment [7], greater than 100 µM. In addition, the results for the TGI in experiment [8], in experiment [9] and in experiment [10] were greater than 100 µM, greater than 100 µM and 8.5 µM, respectively.

For the compound `CCN(CC)CCN1C(=O)C(=O)N(c2cccc3ccccc23)C1=O`, the TGI in experiment [2], in experiment [3], in experiment [4], in experiment [5], in experiment [6] and in [7] was greater than 10 µM in each case. Moreover, the TGI in experiment [8], in experiment [9] and in experiment [10] was greater than 10 µM each time.
